From patent publication US12612424B2, “HPK1 inhibitors and uses thereof” (Regor Pharmaceuticals, Inc., priority 2019, dated 2026)

Molecular target: T1, JAK3 (Homo sapiens, UniProt P52333)
T1 construct: purchased Thermo fisher PV3855
Assay: JAK3 biochemical assay (ADP-GLO Kinase Assay)
Details: for IC50: B*: testing performed in a first testing facility, read-out: JAK3 IC50 (nM) Relative, B*; for JAKs/HPK1 IC50 Ratio, B*: ratio of JAK3 IC50 to HPK1 IC50, first testing facility
Procedure, shortened: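 Human JAK3 (0.78 ng) with 0.2 μg/μL Poly(E4Y1) and 4 μM ATP in 40 mM Tris pH 7.5, 20 mM MgCl2, 0.1 mg/ml BSA, 50 μM DTT, 1% DMSO; 60 min at 25 °C. ADP formed read by ADP-Glo luminescence. 10-dose 3-fold series from 10 μM; IC50 by three-parameter logistic fit.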

T1 sequence (P52333 781-1124 limits assumed): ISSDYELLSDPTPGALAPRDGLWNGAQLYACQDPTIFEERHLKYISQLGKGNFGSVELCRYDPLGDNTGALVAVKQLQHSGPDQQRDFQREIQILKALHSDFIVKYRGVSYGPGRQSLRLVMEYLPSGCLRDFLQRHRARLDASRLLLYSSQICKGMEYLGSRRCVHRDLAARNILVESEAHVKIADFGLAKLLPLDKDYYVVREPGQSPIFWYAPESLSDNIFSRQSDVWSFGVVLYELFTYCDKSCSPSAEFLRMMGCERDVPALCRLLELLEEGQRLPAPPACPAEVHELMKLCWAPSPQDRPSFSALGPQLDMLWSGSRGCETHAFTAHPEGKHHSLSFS

Structure (SMILES) | IC50 [nM] | JAKs/HPK1 IC50 Ratio, B*
COc1cc2c(cc1Nc1ncc(Cl)c(N3CCc4ncccc43)n1)CN(C)CC2 [Example 16, N-(5-chloro-4-(2,3-dihydro-1H-pyrrolo[3,2-b]pyridin-1-yl)pyrimidin-2-yl)-6-methoxy-2-methyl-1,2,3,4-tetrahydroisoquinolin-7-amine] | > 1000 | –
COc1cc2c(cc1Nc1ncc(Cl)c(N3CCc4ccc(Cl)cc43)n1)CN(C)CC2 [Example 18, N-(5-chloro-4-(6-chloroindolin-1-yl)pyrimidin-2-yl)-6-methoxy-2-methyl-1,2,3,4-tetrahydroisoquinolin-7-amine] | > 1000 | >446
COc1cc2c(cc1Nc1ncc(Cl)c(N3CC(S(C)(=O)=O)c4ccccc43)n1)CN(C)CC2 (stereo not drawn) [Example 81, N-(5-chloro-4-(3-(methylsulfonyl)indolin-1-yl)pyrimidin-2-yl)-6-methoxy-2-methyl-1,2,3,4-tetrahydroisoquinolin-7-amine] | 500 to 1000 | 444
COc1cc2c(cc1Nc1ncc(Cl)c(-n3cc(S(N)(=O)=O)c4ccccc43)n1)CN(C)CC2 [Example 83, 1-(5-Chloro-2-((6-methoxy-2-methyl-1,2,3,4-tetrahydroisoquinolin-7-yl)amino)pyrimidin-4-yl)-1H-indole-3-sulfonamide] | > 1000 | 232
COc1cc2c(cc1Nc1ncc(Cl)c(N3CC4(CC4)c4ccccc43)n1)CN(C)CC2 [Example 84, N-(5-chloro-4-(spiro[cyclopropane-1,3′-indolin]-1′-yl)pyrimidin-2-yl)-6-methoxy-2-methyl-1,2,3,4-tetrahydroisoquinolin-7-amine] | 100 to 500 | –
COc1cc2c(cc1Nc1ncc(Cl)c(N3CCc4cc(P(C)(C)=O)ccc43)n1)CN(C)CC2 [Example 86] | > 1000 | 67
COc1cc2c(cc1Nc1ncc(Cl)c(N3CC(CO)c4ccccc43)n1)CN(C)CC2 (stereo not drawn) [Example 87] | 100 to 500 | –
COc1cc2c(cc1Nc1ncc(Cl)c(N3CC(P(C)(C)=O)c4ccccc43)n1)CN(C)CC2 (stereo not drawn) [Example 88] | > 1000 | –
COc1cc2c(cc1Nc1ncc(Cl)c(N3CCc4cc(C(F)F)ccc43)n1)CN(C)CC2 [Example 90, N-(5-chloro-4-(5-(difluoromethyl)indolin-1-yl)pyrimidin-2-yl)-6-methoxy-2-methyl-1,2,3,4-tetrahydroisoquinolin-7-amine] | > 1000 | 413
COc1cc2c(cc1Nc1ncc(Cl)c(N3CCc4ccc(C(F)F)cc43)n1)CN(C)CC2 [Example 91, N-(5-chloro-4-(6-(difluoromethyl)indolin-1-yl)pyrimidin-2-yl)-6-methoxy-2-methyl-1,2,3,4-tetrahydroisoquinolin-7-amine] | > 1000 | >1500
COc1cc2c(cc1Nc1ncc(Cl)c(N3CCc4c(C(F)F)cccc43)n1)CN(C)CC2 [Example 92, N-(5-chloro-4-(4-(difluoromethyl)indolin-1-yl)pyrimidin-2-yl)-6-methoxy-2-methyl-1,2,3,4-tetrahydroisoquinolin-7-amine] | > 1000 | 393
COc1cc2c(cc1Nc1ncc(Cl)c(-n3cc(C4(O)COC4)c4ccccc43)n1)CN(C)CC2 [Example 93] | > 1000 | –
CNC(=O)C1CN(c2nc(Nc3cc4c(cc3OC)CCN(C)C4)ncc2Cl)c2ccccc21 (stereo not drawn) [Example 97, 1-(5-Chloro-2-((6-methoxy-2-methyl-1,2,3,4-tetrahydroisoquinolin-7-yl)amino)pyrimidin-4-yl)-N-methylindoline-3-carboxamide] | > 1000 | 800
COc1cc2c(cc1Nc1ncc(Cl)c(N3CC(C(=O)NS(C)(=O)=O)c4ccccc43)n1)CN(C)CC2 (stereo not drawn) [Example 98] | > 1000 | 508
COc1cc2c(cc1Nc1ncc(Cl)c(N3CC(C#N)c4ccccc43)n1)CN(C)CC2 (stereo not drawn) [Example 99, 1-(5-Chloro-2-((6-methoxy-2-methyl-1,2,3,4-tetrahydroisoquinolin-7-yl)amino)pyrimidin-4-yl)indoline-3-carbonitrile] | ≤ 100 | 100
COc1cc2c(cc1Nc1ncc(Cl)c(N3CC(c4nn[nH]n4)c4ccccc43)n1)CN(C)CC2 (stereo not drawn) [Example 100, N-(4-(3-(2H-tetrazol-5-yl)indolin-1-yl)-5-chloropyrimidin-2-yl)-6-methoxy-2-methyl-1,2,3,4-tetrahydroisoquinolin-7-amine] | 100 to 500 | 200
COc1cc2c(cc1Nc1ncc(Cl)c(N3CC(C(=O)NO)c4ccccc43)n1)CN(C)CC2 (stereo not drawn) [Example 101, 1-(5-Chloro-2-((6-methoxy-2-methyl-1,2,3,4-tetrahydroisoquinolin-7-yl)amino)pyrimidin-4-yl)-N-hydroxyindoline-3-carboxamide] | > 1000 | 373
COc1cc2c(cc1Nc1ncc(Cl)c(N3CC(C(=O)N(C)O)c4ccccc43)n1)CN(C)CC2 (stereo not drawn) [Example 102] | > 1000 | >2603
CONC(=O)C1CN(c2nc(Nc3cc4c(cc3OC)CCN(C)C4)ncc2Cl)c2ccccc21 (stereo not drawn) [Example 103, 1-(5-Chloro-2-((6-methoxy-2-methyl-1,2,3,4-tetrahydroisoquinolin-7-yl)amino)pyrimidin-4-yl)-N-methoxyindoline-3-carboxamide] | 500 to 1000 | 540

Structure (SMILES) | IC50 [nM] | JAKs/HPK1 IC50 Ratio, B*
COc1cc2c(cc1Nc1ncc(Cl)c(N3CC(C(=O)O)c4cc(F)ccc43)n1)CN(C)CC2 (stereo not drawn) [Example 104] | ≤ 100 | 45
COc1cc2c(cc1Nc1ncc(Cl)c(N3CC(C(=O)O)c4ccc(F)cc43)n1)CN(C)CC2 (stereo not drawn) [Example 105] | 100 to 500 | 140
COc1ccc2c(c1)N(c1nc(Nc3cc4c(cc3OC)CCN(C)C4)ncc1Cl)CC2C(=O)O (stereo not drawn) [Example 107, 1-(5-Chloro-2-((6-methoxy-2-methyl-1,2,3,4-tetrahydroisoquinolin-7-yl)amino)pyrimidin-4-yl)-6-methoxyindoline-3-carboxylic acid] | > 1000 | 2200
COc1cc2c(cc1Nc1ncc(Cl)c(N3CC(C(=O)O)c4c(OC)cccc43)n1)CN(C)CC2 (stereo not drawn) [Example 108, 1-(5-Chloro-2-((6-methoxy-2-methyl-1,2,3,4-tetrahydroisoquinolin-7-yl)amino)pyrimidin-4-yl)-4-methoxyindoline-3-carboxylic acid] | > 1000 | 886
COc1cc2c(cc1Nc1ncc(F)c(N3CC(C(=O)O)c4ccccc43)n1)CN(C)CC2 (stereo not drawn) [Example 109, 1-(5-Fluoro-2-((6-methoxy-2-methyl-1,2,3,4-tetrahydroisoquinolin-7-yl)amino)pyrimidin-4-yl)indoline-3-carboxylic acid] | 500 to 1000 | 269
COc1cc2c(cc1Nc1ncc(C#N)c(N3CC(C(=O)O)c4ccccc43)n1)CN(C)CC2 (stereo not drawn) [Example 110, 1-(5-Cyano-2-((6-methoxy-2-methyl-1,2,3,4-tetrahydroisoquinolin-7-yl)amino)pyrimidin-4-yl)indoline-3-carboxylic acid] | > 1000 | 477
COC(=O)C1CN(c2nc(Nc3cc4c(cc3OC)CCN(C)C4)ncc2C(F)F)c2ccccc21 (stereo not drawn) [Example 112] | > 1000 | >3309
COc1cc2c(cc1Nc1ncc(Cl)c(-n3nc(C(=O)O)c4ccccc43)n1)CN(C)CC2 [Example 113] | > 1000 | 293
COC(=O)C1CN(c2nc(Nc3cc4c(cc3OC)CCN(C)C4)ncc2Cl)c2ccccc21 (stereo not drawn) [Example 115, Methyl 1-(5-chloro-2-((6-methoxy-2-methyl-1,2,3,4-tetrahydroisoquinolin-7-yl)amino)pyrimidin-4-yl)indoline-3-carboxylate] | > 1000 | 1275
COC(=O)C1(C)CN(c2nc(Nc3cc4c(cc3OC)CCN(C)C4)ncc2Cl)c2ccccc21 (stereo not drawn) [Example 116] | > 1000 | 890
COc1cc2c(cc1Nc1ncc(Cl)c(N3CC(C)(C(N)=O)c4ccccc43)n1)CN(C)CC2 (stereo not drawn) [Example 120, 1-(5-Chloro-2-((6-methoxy-2-methyl-1,2,3,4-tetrahydroisoquinolin-7-yl)amino)pyrimidin-4-yl)-3-methylindoline-3-carboxamide] | ≤ 100 | 120
COc1cc2c(cc1Nc1ncc(Cl)c(N3CC(C)(C#N)c4ccccc43)n1)CN(C)CC2 (stereo not drawn) [Example 121, 1-(5-Chloro-2-((6-methoxy-2-methyl-1,2,3,4-tetrahydroisoquinolin-7-yl)amino)pyrimidin-4-yl)-3-methylindoline-3-carbonitrile] | ≤ 100 | 50
CNC(=O)C1(C)CN(c2nc(Nc3cc4c(cc3OC)CCN(C)C4)ncc2Cl)c2ccccc21 (stereo not drawn) [Example 122] | ≤ 100 | 100
COc1cc2c(cc1Nc1ncc(Cl)c(N3CC(C)(CO)c4ccccc43)n1)CN(C)CC2 (stereo not drawn) [Example 123] | ≤ 100 | 60
COc1cc2c(cc1Nc1ncc(Cl)c(N3CC(C)(C(=O)O)c4cc(F)ccc43)n1)CN(C)CC2 (stereo not drawn) [Example 125] | ≤ 100 | 6
COc1cc2c(cc1Nc1ncc(Cl)c(N3CC(C)(C(=O)O)c4ccc(F)cc43)n1)CN(C)CC2 (stereo not drawn) [Example 126] | ≤ 100 | 9
COc1cc2c(cc1Nc1ncc(Cl)c(N3CC(CC(=O)O)c4ccccc43)n1)CN(C)CC2 (stereo not drawn) [Example 128] | 100 to 500 | 280
COc1cc2c(cc1Nc1ncc(Cl)c(-n3cc(CC(=O)O)c4ccccc43)n1)CN(C)CC2 [Example 129] | 500 to 1000 | 640
